Test results as given in US20170157135A1 (Novogen Limited, priority 2013, published 2017).

What was measured:
[1] = system: SHEP neuroblastoma (SH-EP) cells; assay: Cell viability assay (MTT), SHEP; type: cell-based; settings: 48 hr treatment
Protocol: (§1) Cell viability assays were also conducted to assess the anti-proliferative effects of the anti-tropomyosin compounds. Briefly, cells (1×10^3/well) were plated (96-well) and treated (48 hr) with anti-tropomyosin drug and viability measured using 3-(4,5-dimethylthiazol-2-yl)-2,5-diphenylterazolium bromide MTT. Cell viability was normalized to control (vehicle alone) and dose-response curves, and half maximal effective concentration (EC50) values were determined using Graph Pad Prism 5 (nonlinear regression sigmoidal dose-response variable slope).

[2] = system: SKMEL28 melanoma (SK-MeI-28) cells; assay: Cell viability assay (MTT), SKMEL28; type: cell-based; settings: Homo sapiens, SK-MEL-28, 48 hr treatment
Protocol: as §1

actin cytoskeleton = assay: Microfilament disruption assay (phalloidin actin staining); type: cell-based; settings: 24 hours
Protocol: In silico modeling has identified binding sites on tropomyosin Tm5NM1, yielding the series of tropomyosin inhibitors the subject of the present invention. Inhibition of Tm5NM1 in tumour cells results in disruption of the actin cytoskeleton and ultimately cell death. The ability of compounds 2001-2012 to disrupt the actin cytoskeleton was assessed in vitro using the microfilament disruption assay. Briefly, cells were seeded (5×10^3/well) into 8-well chamber slides (NUNC) and treated with the concentrations of anti-tropomyosin compounds nominated in Table 1 for 24 hours using DMSO as vehicle control. Actin was visualized with Alexa 555 conjugated phalloidin (Molecular probes). Random fields were imaged using an Olympus IX81 microscope. Cells (n>50) were scored on the basis of positive filament staining from n=3 independent experiments.

[3] = system: SK-N-SH neuroblastoma cells; assay: Anti-proliferative assay (cell-titre luminescent), SK-N-SH; type: cell-based; settings: Homo sapiens, 72 hours, luminescence
Method in brief: (§2)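 Cells were seeded at pre-determined densities in ATCC-recommended media and allowed to attach for 24 h at 37° C and 5% CO2. Compounds were then added at 30, 10, 3, 1, 0.3 and 0.1 μM for 72 hours, followed by cell-titre luminescent reagent for 30 minutes. EC50 values came from variable-slope sigmoidal fits of vehicle-normalized viability.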

A549 lung (NSLC) cells = assay: Anti-proliferative assay (cell-titre luminescent), A549; type: cell-based; settings: Homo sapiens; A549, 72 hours, luminescence
Method in brief: as §2

[4] = system: PC3 prostate cancer cells; assay: Anti-proliferative assay (cell-titre luminescent), PC3; type: cell-based; settings: PC3, 72 hours, luminescence
Method in brief: as §2

[5] = system: MDA-MB-231 breast cancer cells; assay: Anti-proliferative assay (cell-titre luminescent), MDA-MB-231; type: cell-based; settings: Homo sapiens; MDA-MB-231, 72 hours, luminescence
Method in brief: as §2

[6] = system: DU145 prostate cancer cells; assay: Anti-proliferative assay (cell-titre luminescent), DU145; type: cell-based; settings: Homo sapiens, DU-145; DU145, 72 hours, luminescence
Method in brief: as §2

[7] = system: CaCo2 colorectal cancer cells; assay: Anti-proliferative assay (cell-titre luminescent), CaCo2; type: cell-based; settings: Homo sapiens, Caco-2; CaCo2, 72 hours, luminescence
Method in brief: as §2

SK-Mel-28 melanoma cells = assay: Anti-proliferative assay (cell-titre luminescent), SK-Mel-28; type: cell-based; settings: Homo sapiens; SK-Mel-28, 72 hours, luminescence
Method in brief: as §2

Tm5NM1 = Tm5NM1 (Homo sapiens, UniProt P06753); assay: Pyrene-based actin filament depolymerization assay, Tm5NM1-containing actin filaments; type: biochemical; settings: 50 μM compound, p=0.1 vs F-actin alone
Protocol: FIG. 1: Impact of compound 2026 on Tm5NM1-regulated actin-filament depolymerization kinetics. (A and C) Depolymerization time course of 6 μM actin filaments (35% pyrene labelled) diluted 12-fold into F-actin buffer (100 mM NaCl, 10 mM Tris-HCl pH 7.0, 2 mM MgCl2, 1 mM EGTA, 0.2 mM CaCl2, 0.2 mM ATP, 0.5 mM DTT, 0.01% (v/v) NaN3) in the presence or absence of saturating amounts (10 μM) of Tm5NM1. Final concentration of F-actin and Tm5NM1 was 0.5 μM and 0.83 μM respectively. Tm5NM1 was pre-incubated with 50 μM compound 2026 or 1% (v/v) DMSO prior to mixing with F-actin. Depolymerization data is normalized to the initial fluorescence value. (B and D) Initial rates (V0) of depolymerization for F-actin alone or Tm5NM1/F-actin, in the presence of compound 2026. Initial rates of depolymerization were determined from the first 3600 s, fitted to a linear regression model. Data represents mean±SEM, averaged from n>6 replicates.
A brief overview and rationale of the assay is as follows: to promote depolymerization, pyrene-labelled actin filaments were diluted below the critical concentration of the pointed end (0.5 μM, as defined by Pollard et al., 1986). A decline in fluorescence was measured over time as actin monomers dissociate. […]
The depolymerization of F-actin alone and F-actin-coated with Tm5NM1 was then measured in the presence of compound and initial rates of depolymerization were compared. […]

Chain of Tm5NM1 (P06753 1-248 isoform P06753-2): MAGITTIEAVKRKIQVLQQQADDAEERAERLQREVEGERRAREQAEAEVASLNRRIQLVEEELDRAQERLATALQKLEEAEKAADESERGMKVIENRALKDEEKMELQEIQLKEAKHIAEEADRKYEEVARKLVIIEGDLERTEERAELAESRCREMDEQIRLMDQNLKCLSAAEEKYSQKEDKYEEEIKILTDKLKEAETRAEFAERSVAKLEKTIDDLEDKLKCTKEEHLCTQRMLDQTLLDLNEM

IC50 [1]	IC50 [2]	IC50 [3]	IC50 (A549 lung (NSLC) cells)	IC50 [4]	IC50 [5]	IC50 [6]	IC50 [7]	IC50 (SK-Mel-28 melanoma cells)	SMILES	Microfilament disruption 10 μM (actin cytoskeleton)	Effect on Tm5NM1 function (protection of actin filaments from depolymerization) (Tm5NM1)
11.5 µM	1.64 µM	–	–	–	–	–	–	–	C/C(=C\C(=O)N1CCN(CCc2ccccc2)CC1)c1c(C)n(CCCN(C)C)c2ccccc12 [Compound 2001, (E)-3-(1-(3-(dimethylamino)propyl)-2-methyl-1H-indol-3-yl)-1-(4-phenethylpiperazin-1-yl)but-2-en-1-one]	–	–
198 µM	32.7 µM	–	–	–	–	–	–	–	Cc1c(/C=C/C(=O)N2CCN(C(=O)c3ccccc3)CC2)c2ccccc2n1CCCN(C)C [Compound 2004, (E)-1-(4-benzoylpiperazin-1-yl)-3-(1-(3-(dimethylamino)propyl)-2-methyl-1H-indol-3-yl)prop-2-en-1-one]	–	–
1.92 µM	3.7 µM	–	–	–	–	–	–	–	Cc1c(/C=C/C(=O)N2CCN(CCc3ccccc3)CC2)c2ccccc2n1CCCN1CCN(C)CC1 [Compound 2008, (E)-3-(2-methyl-1-(3-(4-methylpiperazin-1-yl)propyl)-1H-indol-3-yl)-1-(4-phenethylpiperazin-1-yl)prop-2-en-1-one]	no cells	–
13.2 µM	12.1 µM	–	–	–	–	–	–	–	Cc1c(/C=C/C(=O)NCCc2ccccc2)c2ccccc2n1CCCN(C)C [Compound 2011, (E)-3-(1-(3-(dimethylamino)propyl)-2-methyl-1H-indol-3-yl)-N-phenethylacrylamide]	–	–
24 µM	33.1 µM	–	–	–	–	–	–	–	Cc1c(/C=C/C(=O)N2CCN(CCc3ccccc3)CC2)c2ccccc2n1CCCN1CCOCC1 [Compound 2007, (E)-3-(2-methyl-1-(3-morpholinopropyl)-1H-indol-3-yl)-1-(4-phenethylpiperazin-1-yl)prop-2-en-1-one]	–	–
21.7 µM	3.2 µM	–	–	–	–	–	–	–	Cc1nc(-c2cn(CCCN(C)C)c3ccccc23)cc(N2CCN(CCc3ccccc3)CC2)n1 [Compound 2012, N,N-dimethyl-3-(3-(2-methyl-6-(4-phenethylpiperazin-1-yl)pyrimidin-4-yl)-1H-indol-1-yl)propan-1-amine]	–	–
3.2 µM	2.75 µM	–	–	–	–	–	–	–	COc1ccc(CN2CCN(C(=O)/C=C/c3c(C)n(CCCN(C)C)c4ccccc34)CC2)cc1 [Compound 2010, (E)-3-(1-(3-(dimethylamino)propyl)-2-methyl-1H-indol-3-yl)-1-(4-(4-methoxybenzyl)piperazin-1-yl)prop-2-en-1-one]	–	–
2.3 µM	3.1 µM	–	–	–	–	–	–	–	Cc1c(/C=C/C(=O)N2CCN(Cc3ccc(F)cc3)CC2)c2ccccc2n1CCCN(C)C [Compound 2003, (E)-3-(1-(3-(dimethylamino)propyl)-2-methyl-1H-indol-3-yl)-1-(4-(4-fluorobenzyl)piperazin-1-yl)prop-2-en-1-one]	no cells	–
9.6 µM	2.01 µM	12.2 µM	11.9 µM	22.5 µM	11.5 µM	11.1 µM	23.5 µM	5.7 µM	Cc1c(/C=C/C(=O)N2CCN(CCc3ccc(F)cc3)CC2)c2ccccc2n1CCCN(C)C [Compound 2002, (E)-3-(1-(3-(dimethylamino)propyl)-2-methyl-1H-indol-3-yl)-1-(4-(4-fluorophenethyl)piperazin-1-yl)prop-2-en-1-one]	no cells	–
2.4 µM	1.86 µM	10.8 µM	54.3 µM	30 µM	30 µM	14.3 µM	16.1 µM	6.5 µM	COc1ccc2c(c1)c(/C=C/C(=O)N1CCN(CCc3ccccc3)CC1)c(C)n2CCCN(C)C [Compound 2009, (E)-3-(1-(3-(dimethylamino)propyl)-5-methoxy-2-methyl-1H-indol-3-yl)-1-(4-phenethylpiperazin-1-yl)prop-2-en-1-one]	no cells	–
–	–	2.5 µM	3.4 µM	5.2 µM	4.3 µM	9.8 µM	4.1 µM	1.7 µM	CCN(CC)CCCn1c(C)c(/C=C/C(=O)N2CCN(CCc3cccc(F)c3)CC2)c2cc(OC)ccc21 [Compound 2026, (E)-3-(1-(3-(diethylamino)propyl)-5-methoxy-2-methyl-1H-indol-3-yl)-1-(4-(3-fluorophenethyl)piperazin-1-yl)prop-2-en-1-one]	–	interacts with and impairs Tm5NM1 function
12.9 µM	41 µM	–	–	–	–	–	–	–	CCCCN1CCN(C(=O)/C=C/c2c(C)n(CCCN(C)C)c3ccccc23)CC1 [Compound 2005, (E)-1-(4-butylpiperazin-1-yl)-3-(1-(3-(dimethylamino)propyl)-2-methyl-1H-indol-3-yl)prop-2-en-1-one]	–	–
12.5 µM	157 µM	–	–	–	–	–	–	–	Cc1c(/C=C/C(=O)N2CCN(CCc3ccccc3)CC2)c2ccccc2n1CCN(C)C [Compound 2006, (E)-3-(1-(2-(dimethylamino)ethyl)-2-methyl-1H-indol-3-yl)-1-(4-phenethylpiperazin-1-yl)prop-2-en-1-one]	–	–
–	–	3.7 µM	4.2 µM	2.1 µM	5.2 µM	6.2 µM	3.7 µM	3.9 µM	COc1ccc2c(c1)c(/C=C/C(=O)N1CCN(CCc3ccc4c(c3)OCO4)CC1)c(C)n2CCCN1CCN(C)CC1 [Compound 2031, (E)-1-(4-(2-(benzo[d][1,3]dioxol-5-yl)ethyl)piperazin-1-yl)-3-(5-methoxy-2-methyl-1-(3-(4-methylpiperazin-1-yl)propyl)-1H-indol-3-yl)prop-2-en-1-one]	–	–
